From patent US6448261B1, “Arylamino fused pyridines” (Bristol-Myers Squibb Pharma Company, priority 1996, dated 2002)

For `CCC(COC)n1nnc2c(Nc3ccc(C(C)C)cc3Br)nc(C)nc21` (racemic) [Example 9, (+/−)-N-[2-bromo-4-(1-methylethyl)phenyl]-3-[1-(1-methoxymethyl)propyl]-5-methyl-3H-1,2,3-triazolo[4,5-d]pyrimidin-7-amine], the melting point was 115 to 116 °C.
`CCCCC(CC)n1nnc2c(Nc3ccc(C(C)C)cc3Br)nc(C)nc21` (racemic) [Example 13, (+/−)-N-[2-bromo-4-(1-methylethyl)phenyl]-3-[1-ethylpentyl]-5-methyl-3H-1,2,3-triazolo[4,5-d]pyrimidin-7-amine] gave a melting point of 137 to 138 °C.
`CCCC(CC)n1nnc2c(Nc3ccc(C(C)C)cc3Br)nc(C)nc21` (racemic) [Example 17, (+/−)-N-[2-bromo-4-(1-methylethyl)phenyl]-3-[1-ethylbutyl]-5-methyl-3H-1,2,3-triazolo[4,5-d]pyrimidin-7-amine] showed a melting point of 154 to 155 °C.
With `CCC(COC)n1nnc2c(Nc3ccc(C(C)=O)cc3Br)nc(C)nc21` (racemic) [Example 27, (+/−)-N-(4-acetyl-2-bromophenyl)-3-[1-(1-methoxymethyl)propyl]-5-methyl-3H-1,2,3-triazolo[4,5-d]pyrimidin-7-amine] the melting point was 133 to 134 °C.
For `CCC(COC)n1nnc2c(Nc3c(Br)cc(OC)cc3OC)nc(C)nc21` (racemic) [Example 30, (+/−)-N-(2-bromo-4,6-dimethoxyphenyl)-3-[1-(1-methoxymethyl)propyl]-5-methyl-3H-1,2,3-triazolo[4,5-d]pyrimidin-7-amine], the melting point was 154 to 155 °C.
`CCC(COC)n1nnc2c(Nc3c(Cl)cc(OC)cc3OC)nc(C)nc21` (racemic) [Example 31, (+/−)-N-(2-chloro-4,6-dimethoxyphenyl)-3-[1-(1-methoxymethyl)propyl]-5-methyl-3H-1,2,3-triazolo[4,5-d]pyrimidin-7-amine] gave a melting point of 149 to 150 °C.
Compound `CCC(COC)n1nnc2c(Nc3c(C)cc(C)cc3C)nc(C)nc21` (racemic) [Example 32, (+/−)-3-[1-(1-methoxymethyl)propyl]-5-methyl-N-(2,4,6-trimethylphenyl)-3H-1,2,3-triazolo[4,5-d]pyrimidin-7-amine] has a melting point of 144.5 to 147 °C.
`CCCC(CC)n1nnc2c(Nc3c(C)cc(C)cc3C)nc(C)nc21` (racemic) [Example 35, (+/−)-3-[1-(1-ethyl)butyl]-5-methyl-N-(2,4,6-trimethylphenyl)-3H-1,2,3-triazolo[4,5-d]pyrimidin-7-amine] showed a melting point of 170.5 to 172 °C.
Compound `CCCCC(CC)n1nnc2c(Nc3c(C)cc(C)cc3C)nc(C)nc21` (racemic) [Example 36, (+/−)-3-[1-(1-ethyl)pentyl]-5-methyl-N-(2,4,6-trimethylphenyl)-3H-1,2,3-triazolo[4,5-d]pyrimidine-7-amine] has a melting point of 129 to 130.5 °C.
`CCC(COC)n1nnc2c(Nc3ccc(Br)cc3C)nc(C)nc21` (racemic) [Example 42, (+/−)-N-(4-bromo-2-methylphenyl)-3-[1-(1-methoxymethyl)propyl]-5-methyl-3H-1,2,3-triazolo[4,5-d]pyrimidin-7-amine] gave a melting point of 144.5 to 146 °C.
`CCCCC(CC)n1nnc2c(Nc3ccc(C(C)C)cc3Br)nc(C)cc21` (racemic) [Example 226, (+/−)-N-[2-bromo-4-(1-methylethyl)phenyl]-1-(1-ethylpentyl)-6-methyl-1H-1,2,3-triazolo[4,5-c]pyridin-4-amine] showed a melting point of 73 to 74 °C.
`CCCCC(CC)n1nnc2c(Nc3c(Br)cc(OC)cc3OC)nc(C)cc21` (racemic) [Example 227, (+/−)-N-(2-bromo-4,6-dimethoxyphenyl)-1-(1-ethylpentyl)-6-methyl-1H-1,2,3-triazolo[4,5-c]pyridin-4-amine] showed a melting point of 127 to 128 °C.
With `CCCCC(CC)n1nnc2c(Nc3c(Cl)cc(OC)cc3OC)nc(C)cc21` (racemic) [Example 228, (+/−)-N-(2-chloro-4,6-dimethoxyphenyl)-1-(1-ethylpentyl)-6-methyl-1H-1,2,3-triazolo[4,5-c]pyridin-4-amine] the melting point was 155 to 156 °C.
`CCCn1nnc2c(Nc3ccc(C(C)C)cc3Br)nc(C)nc21` [Example 1, N-[2-bromo-4-(1-methylethyl)phenyl]-5-methyl-3-propyl-3H-1,2,3-triazolo[4,5-d]pyrimidin-7-amine] showed a melting point of 80 to 81 °C.
`COCCn1nnc2c(Nc3ccc(C(C)C)cc3Br)nc(C)nc21` [Example 6, N-[2-bromo-4-(1-methylethyl)phenyl]-3-(2-methoxyethyl)-5-methyl-3H-1,2,3-triazolo[4,5-d]pyrimidin-7-amine] showed a melting point of 94 to 95 °C.
`COC[C@H](Cc1ccccc1)n1nnc2c(Nc3ccc(C(C)C)cc3Br)nc(C)nc21` [Example 11, (S)-N-[2-bromo-4-(1-methylethyl)phenyl]-3-[1-(1-methoxymethyl)-2-phenylethyl]-5-methyl-3H-1,2,3-triazolo[4,5-d]pyrimidin-7-amine] showed a melting point of 67 to 69 °C.
Compound `CCCC(CCC)n1nnc2c(Nc3ccc(C(C)C)cc3Br)nc(C)nc21` [Example 15, N-[2-bromo-4-(1-methylethyl)phenyl]-3-[1-propylbutyl]-5-methyl-3H-1,2,3-triazolo[4,5-d]pyrimidin-7-amine] has a melting point of 69 to 70 °C.
With `CCCCC(CCCC)n1nnc2c(Nc3ccc(C(C)C)cc3Br)nc(C)nc21` [Example 16, N-[2-bromo-4-(1-methylethyl)phenyl]-3-[1-butylpentyl]-5-methyl-3H-1,2,3-triazolo[4,5-d]pyrimidin-7-amine] the melting point was 132 to 133 °C.
Work on `CCC(CC)n1nnc2c(Nc3ccc(C(C)C)cc3Br)nc(C)nc21` [Example 19, N-[2-bromo-4-(1-methylethyl)phenyl]-3-[1-ethylpropyl]-5-methyl-3H-1,2,3-triazolo[4,5-d]pyrimidin-7-amine] yielded a melting point of 171 to 172 °C.
Compound `CCCC(CCC)n1nnc2c(Nc3c(C)cc(C)cc3Br)nc(C)nc21` [Example 21, N-(2-bromo-4,6-dimethylphenyl)-5-methyl-3-[1-propylbutyl]-3H-1,2,3-triazolo[4,5-d]pyrimidin-7-amine] has a melting point of 141 to 142 °C.
With `CCC(CC)n1nnc2c(Nc3ccc(C(C)=O)cc3Br)nc(C)nc21` [Example 26, N-(4-acetyl-2-bromophenyl)-3-[1-ethylpropyl]-5-methyl-3H-1,2,3-triazolo[4,5-d]pyrimidin-7-amine] the melting point was 153 to 154 °C.
`CCC(CC)n1nnc2c(Nc3c(C)cc(C)cc3C)nc(C)nc21` [Example 34, 3-[1-(1-ethyl)propyl]-5-methyl-N-(2,4,6-trimethylphenyl)-3H-1,2,3-triazolo[4,5-d]pyrimidin-7-amine] gave a melting point of 160 to 162 °C.
Work on `CCCC(CCC)n1nnc2c(Nc3c(C)cc(C)cc3C)nc(C)nc21` [Example 37, 5-methyl-3-[1-(1-propyl)butyl]-N-(2,4,6-trimethylphenyl)-3H-1,2,3-triazolo[4,5-d]pyrimidin-7-amine] yielded a melting point of 143 to 144.5 °C.
Compound `COCCn1nnc2c(Nc3c(C)cc(C)cc3C)nc(C)nc21` [Example 38, 3-(2-methoxyethyl)-5-methyl-N-(2,4,6-trimethylphenyl)-3H-1,2,3-triazolo[4,5-d]pyrimidin-7-amine] has a melting point of 171.5 to 173.5 °C.
Work on `CCCC(CCC)n1nnc2c(Nc3ccc(Br)cc3C)nc(C)nc21` [Example 40, N-(2-Methyl-4-bromophenyl)-3-[1-(1-propyl)butyl]-5-methyl-3H-1,2,3-triazolo[4,5-d]pyrimidin-7-amine] yielded a melting point of 126.5 to 128 °C.
In the case of `CCC(CC)n1nnc2c(Nc3ccc(C(C)C)cc3Br)nc(C)cc21` [Example 221, N-[2-bromo-4-(1-methylethyl)phenyl]-1-(1-ethylpropyl)-6-methyl-1H-1,2,3-triazolo[4,5-c]pyridin-4-amine], the melting point is reported as 144 to 145 °C.
In the case of `CCC(CC)n1nnc2c(Nc3c(Br)cc(OC)cc3OC)nc(C)cc21` [Example 222, N-(2-bromo-4,6-dimethoxyphenyl)-1-(1-ethylpropyl)-6-methyl-1H-1,2,3-triazolo[4,5-c]pyridin-4-amine], the melting point is reported as 166 to 167 °C.
`CCCC(CCC)n1nnc2c(Nc3c(Br)cc(OC)cc3OC)nc(C)cc21` [Example 224, N-(2-bromo-4,6-dimethoxyphenyl)-6-methyl-1-(1-propylbutyl)-1H-1,2,3-triazolo[4,5-c]pyridin-4-amine] gave a melting point of 140 to 141 °C.
Work on `CCCC(CCC)n1nnc2c(Nc3c(Cl)cc(OC)cc3OC)nc(C)cc21` [Example 225, N-(2-chloro-4,6-dimethoxyphenyl)-6-methyl-1-(1-propylbutyl)-1H-1,2,3-triazolo[4,5-c]pyridin-4-amine] yielded a melting point of 157 to 158 °C.
